Assay results as given in ChEMBL document CHEMBL5233210, “Pyrazolone structural motif in medicinal chemistry: Retrospect and prospect” (Eur J Med Chem, 2020).
≈ marks a conversion by molar mass, not a printed value.

Legend:
MCF7 = experiment: Cytotoxicity against human MCF7 cells; assay type: functional, cell-based
Ehrlich [1] = experiment: Cytotoxicity against mouse Ehrlich ascites cells assessed as dead cells at 25 ug/ml; assay type: functional; conditions: dose 25 µg/ml
Ehrlich [2] = experiment: Cytotoxicity against mouse Ehrlich ascites cells assessed as dead cells at 100 ug/ml; assay type: functional; conditions: dose 100 µg/ml
Ehrlich [3] = experiment: Cytotoxicity against mouse Ehrlich ascites cells assessed as dead cells at 500 ug/ml; assay type: functional; conditions: dose 500 µg/ml
Rattus norvegicus [4] = experiment: Antiinflammatory activity against rat assessed as inhibition of carrageenan-induced paw edema; assay type: functional
Rattus norvegicus [5] = experiment: Antiinflammatory activity against rat assessed as inhibition of carrageenan-induced paw edema relative to control; assay type: functional; design: concentration or dose not given beside the values
Ovis aries = species on record: Ovis aries; experiment: Selectivity index, ratio of IC50 for ovine COX-1 to IC50 for ovine COX-2
Trichoderma viride = experiment: Antifungal activity against Trichoderma viride assessed as diameter of inhibition zone at 100 ppm; assay type: functional; conditions: read-out: DIZ
Pseudomonas aeruginosa [6] = experiment: Antibacterial activity against Pseudomonas aeruginosa assessed as diameter of inhibition zone at 100 ppm; assay type: functional; conditions: read-out: DIZ
Candida albicans [7] = experiment: Antifungal activity against Candida albicans assessed as diameter of inhibition zone at 100 ppm; assay type: functional; conditions: read-out: DIZ
Bacillus subtilis [8] = experiment: Antibacterial activity against Bacillus subtilis assessed as diameter of inhibition zone at 100 ppm; assay type: functional; conditions: read-out: DIZ
Salmonella paratyphi = experiment: Antibacterial activity against Salmonella paratyphi assessed as diameter of inhibition zone at 100 ppm; assay type: functional, Salmonella enterica subsp. enterica serovar Paratyphi A; conditions: Salmonella enterica, read-out: DIZ
Streptococcus mutans = experiment: Antibacterial activity against Streptococcus mutans assessed as diameter of inhibition zone at 100 ppm; assay type: functional; conditions: read-out: DIZ
Salmonella typhi = experiment: Antibacterial activity against Salmonella typhi assessed as diameter of inhibition zone at 100 ppm; assay type: functional, Salmonella enterica subsp. enterica serovar Typhi; conditions: Salmonella enterica, read-out: DIZ
Micrococcus luteus = experiment: Antibacterial activity against Micrococcus luteus assessed as diameter of inhibition zone at 100 ppm; assay type: functional; conditions: read-out: DIZ
[9] = Antioxidant activity assessed as ABTS radical scavenging activity; assay type: functional
Streptococcus pyogenes = experiment: Antibacterial activity against Streptococcus pyogenes; assay type: functional
Aspergillus fumigatus = experiment: Antifungal activity against Aspergillus fumigatus; assay type: functional
Escherichia coli = experiment: Antibacterial activity against Escherichia coli; assay type: functional
Pseudomonas aeruginosa [10] = experiment: Antibacterial activity against Pseudomonas aeruginosa; assay type: functional
Candida albicans [11] = experiment: Antifungal activity against Candida albicans; assay type: functional
Aspergillus niger = experiment: Antifungal activity against Aspergillus niger; assay type: functional
Staphylococcus aureus = experiment: Antibacterial activity against Staphylococcus aureus; assay type: functional
Bacillus subtilis [12] = experiment: Antibacterial activity against Bacillus subtilis; assay type: functional
[13] = biological target: T1, Prostaglandin G/H synthase 1 (Ovis aries, UniProt P05979); experiment: Inhibition of ovine COX-1
T1 sequence (P05979 whole entry): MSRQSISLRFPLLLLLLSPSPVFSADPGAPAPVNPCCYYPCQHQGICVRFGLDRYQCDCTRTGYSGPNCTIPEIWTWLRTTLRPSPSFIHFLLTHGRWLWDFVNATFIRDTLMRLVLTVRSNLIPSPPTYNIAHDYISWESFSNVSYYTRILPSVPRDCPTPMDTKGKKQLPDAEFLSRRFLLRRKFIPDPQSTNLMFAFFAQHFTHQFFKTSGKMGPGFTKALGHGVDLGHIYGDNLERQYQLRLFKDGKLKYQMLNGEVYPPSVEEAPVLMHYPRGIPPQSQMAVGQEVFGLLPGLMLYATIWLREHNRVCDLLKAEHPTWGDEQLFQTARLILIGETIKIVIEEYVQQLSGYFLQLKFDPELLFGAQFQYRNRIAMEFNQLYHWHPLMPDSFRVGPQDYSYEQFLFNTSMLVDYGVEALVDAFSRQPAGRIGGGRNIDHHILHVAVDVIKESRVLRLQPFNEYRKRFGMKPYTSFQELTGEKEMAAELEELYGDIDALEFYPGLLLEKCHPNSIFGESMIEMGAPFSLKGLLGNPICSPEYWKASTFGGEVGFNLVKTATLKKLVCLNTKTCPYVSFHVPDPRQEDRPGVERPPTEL

[14] = Antioxidant activity assessed as DPPH radical scavenging activity; assay type: functional

Cc1c(-n2cc(C#N)c(=O)n(-c3ccccc3)/c2=N\c2ccccc2)c(=O)n(-c2ccccc2)n1C
IC50 (MCF7): 45 µM

CC1=NNC(=O)/C1=N/Nc1sc2c(c1C(N)=O)CCCC2
Activity (Ehrlich [1]): 38.1%
Activity (Ehrlich [2]): 96.5%
Activity (Ehrlich [3]): 66.6%

Cc1[nH]n(-c2ccccc2)c(=O)c1CNC(=S)Nc1ccccc1
ED50 (Rattus norvegicus [4]): 102 mg/kg
Activity (Rattus norvegicus [5]): 91%
Ratio IC50 (Ovis aries): 400

Cc1[nH]n(-c2ccccc2)c(=O)c1C(c1ccc([N+](=O)[O-])cc1[N+](=O)[O-])c1c(O)ccc2ccccc12 (stereo not drawn)
zone of inhibition at 100 µg/mL (Trichoderma viride): 21.5 mm
zone of inhibition at 100 µg/mL (Pseudomonas aeruginosa [6]): 13.5 mm
zone of inhibition at 100 µg/mL (Candida albicans [7]): 28.5 mm
zone of inhibition at 100 µg/mL (Bacillus subtilis [8]): 22.5 mm
zone of inhibition at 100 µg/mL (Salmonella paratyphi): 20 mm
zone of inhibition at 100 µg/mL (Streptococcus mutans): 14.5 mm
zone of inhibition at 100 µg/mL (Salmonella typhi): 20 mm
zone of inhibition at 100 µg/mL (Micrococcus luteus): 21.5 mm

O=C1O[C@H]([C@@H](O)CO)C(O)=C1O
Activity [9]: 88.2%

CC(=O)OC1CC[C@@]2(C)C(C1)/C(=C1/C(=O)NN=C1N)C[C@H]1[C@@H]3CC[C@H]([C@H](C)CCCC(C)C)[C@@]3(C)CC[C@@H]12 (stereo partly drawn)
MIC (Streptococcus pyogenes): 50 µg/mL (≈ 95.1 µM)
MIC (Aspergillus fumigatus): 50 µg/mL (≈ 95.1 µM)
MIC (Escherichia coli): 50 µg/mL (≈ 95.1 µM)
MIC (Pseudomonas aeruginosa [10]): 50 µg/mL (≈ 95.1 µM)
MIC (Candida albicans [11]): 25 µg/mL (≈ 47.5 µM)

O=C1/C(=C\c2coc3ccccc3c2=O)C(C(F)(F)F)=NN1c1c(F)c(F)cc(F)c1F
MIC (Streptococcus pyogenes): 200 µg/mL (≈ 438 µM)
MIC (Aspergillus niger): > 1000 µg/mL
MIC (Escherichia coli): 500 µg/mL (≈ 1100 µM)
MIC (Staphylococcus aureus): 62.5 µg/mL (≈ 137 µM)
MIC (Bacillus subtilis [12]): 62.5 µg/mL (≈ 137 µM)
MIC (Pseudomonas aeruginosa [10]): 500 µg/mL (≈ 1100 µM)
MIC (Candida albicans [11]): 250 µg/mL (≈ 548 µM)

COc1ccc(N/N=C2\C(=O)N(CC(=O)n3[nH]c(N)cc3=O)N=C2C(F)(F)F)cc1
MIC (Aspergillus niger): 5.3 µg/mL (≈ 12.5 µM)
MIC (Escherichia coli): 15.3 µg/mL (≈ 35.9 µM)
MIC (Staphylococcus aureus): 8.02 µg/mL (≈ 18.9 µM)
MIC (Pseudomonas aeruginosa [10]): 9.58 µg/mL (≈ 22.5 µM)
MIC (Candida albicans [11]): 9.22 µg/mL (≈ 21.7 µM)

CC1=NN(C(=S)NN)C(=O)/C1=N/Nc1ccc(S(N)(=O)=O)cc1
MIC (Aspergillus niger): 5.8 µg/mL (≈ 16.3 µM)
MIC (Escherichia coli): 125 µg/mL (≈ 352 µM)
MIC (Candida albicans [11]): 11.6 µg/mL (≈ 32.6 µM)

Nc1cc(=O)n(C(=O)CN2N=C(C(F)(F)F)/C(=N/Nc3ccc(Cl)cc3)C2=O)[nH]1
MIC (Aspergillus niger): 6.8 µg/mL (≈ 15.8 µM)
MIC (Escherichia coli): 12.7 µg/mL (≈ 29.5 µM)
MIC (Staphylococcus aureus): 7.3 µg/mL (≈ 17 µM)
MIC (Pseudomonas aeruginosa [10]): 7.39 µg/mL (≈ 17.2 µM)
MIC (Candida albicans [11]): 6.18 µg/mL (≈ 14.4 µM)

O=C1/C(=C2/CN(c3ccccc3)N=C2c2ccccc2)C(c2ccccc2)=NN1c1ccccc1
MIC (Aspergillus niger): 5.1 µg/mL (≈ 11.2 µM)
MIC (Escherichia coli): 4.08 µg/mL (≈ 8.98 µM)
MIC (Bacillus subtilis [12]): 10 µg/mL (≈ 22 µM)

CCOC(=O)c1c(N/N=C2/C(=O)NN=C2N)sc2c1CCCC2
Activity (Ehrlich [1]): 60%
Activity (Ehrlich [2]): 98.1%
Activity (Ehrlich [3]): 79%

CCOc1ccc(N/N=C2\C(=O)N(CC(=O)n3[nH]c(N)cc3=O)N=C2C(F)(F)F)cc1
MIC (Aspergillus niger): 6.28 µg/mL (≈ 14.3 µM)
MIC (Escherichia coli): 26.7 µg/mL (≈ 60.8 µM)
MIC (Staphylococcus aureus): 12 µg/mL (≈ 27.4 µM)
MIC (Pseudomonas aeruginosa [10]): 11.9 µg/mL (≈ 27.1 µM)
MIC (Candida albicans [11]): 9.08 µg/mL (≈ 20.7 µM)

Cc1[nH]n(-c2ccccc2)c(=O)c1CNc1ccc(S(N)(=O)=O)cc1
ED50 (Rattus norvegicus [4]): 109 mg/kg
Activity (Rattus norvegicus [5]): 92%
Ratio IC50 (Ovis aries): > 100
IC50 [13]: > 100 µM

COc1cc(-c2cc(C3C(=O)N(c4ccc([N+](=O)[O-])cc4[N+](=O)[O-])N=C3C)nc(N)n2)ccc1O (stereo not drawn)
Activity (Rattus norvegicus [5]): 62.51%

NC(=O)c1c(N/N=C2/C(=O)NN=C2N)sc2c1CCCC2
Activity (Ehrlich [1]): 65%
Activity (Ehrlich [2]): 98.4%
Activity (Ehrlich [3]): 81%

Cc1c(-n2cc(C#N)c(=O)n(-c3ccc(S(=O)(=O)c4ccc(-n5c(=O)c(C#N)cn(-c6c(C)n(C)n(-c7ccccc7)c6=O)c5=S)cc4)cc3)c2=S)c(=O)n(-c2ccccc2)n1C
IC50 (MCF7): 37.2 µM

NC1=NNC(=O)C1(CCS(=O)(=O)c1ccccc1)CCS(=O)(=O)c1ccccc1
MIC (Aspergillus niger): 100 µg/mL (≈ 230 µM)
MIC (Staphylococcus aureus): 100 µg/mL (≈ 230 µM)
MIC (Bacillus subtilis [12]): 100 µg/mL (≈ 230 µM)

CC1=NN(c2nc(-c3ccccc3)cs2)C(=O)C1C(=S)Nc1ccccc1 (stereo not drawn)
Activity [9]: 88.6%

CC1=NN(c2ccc([N+](=O)[O-])cc2[N+](=O)[O-])C(=O)C1c1cc(-c2ccc(N(C)C)cc2)nc(N)n1 (stereo not drawn)
Activity (Rattus norvegicus [5]): 62.05%

Cc1c(/N=C/c2ccc(O)cc2O)c(=O)n(-c2ccccc2)n1C
IC50 [14]: 20.1 µM

CC(C)CCC[C@@H](C)[C@H]1CC[C@H]2[C@@H]3C/C(=C4\C(=O)NN=C4N)C4CC(Cl)CC[C@]4(C)[C@H]3CC[C@]12C (stereo partly drawn)
MIC (Streptococcus pyogenes): 50 µg/mL (≈ 99.6 µM)
MIC (Aspergillus fumigatus): 50 µg/mL (≈ 99.6 µM)
MIC (Escherichia coli): 100 µg/mL (≈ 199 µM)
MIC (Pseudomonas aeruginosa [10]): 50 µg/mL (≈ 99.6 µM)
MIC (Candida albicans [11]): 50 µg/mL (≈ 99.6 µM)

O=C1/C(=C\c2coc3ccc(Cl)cc3c2=O)C(C(F)(F)F)=NN1c1c(F)c(F)cc(F)c1F
MIC (Streptococcus pyogenes): 200 µg/mL (≈ 408 µM)
MIC (Aspergillus niger): 500 µg/mL (≈ 1020 µM)
MIC (Escherichia coli): 125 µg/mL (≈ 255 µM)
MIC (Staphylococcus aureus): 250 µg/mL (≈ 509 µM)
MIC (Bacillus subtilis [12]): 250 µg/mL (≈ 509 µM)
MIC (Pseudomonas aeruginosa [10]): 62.5 µg/mL (≈ 127 µM)
MIC (Candida albicans [11]): 1000 µg/mL (≈ 2040 µM)

CC1=NN(c2ccccc2)C(=O)C1c1cc(-c2ccc(O)cc2)nc(N)n1 (stereo not drawn)
Activity (Rattus norvegicus [5]): 61.84%

CCCC1=NN(c2c(F)c(F)cc(F)c2F)C(=O)/C1=C\c1cn(-c2ccccc2)nc1-c1ccc(Cl)cc1
MIC (Streptococcus pyogenes): 100 µg/mL (≈ 186 µM)
MIC (Aspergillus niger): > 1000 µg/mL
MIC (Escherichia coli): 62.5 µg/mL (≈ 116 µM)
MIC (Staphylococcus aureus): 100 µg/mL (≈ 186 µM)
MIC (Bacillus subtilis [12]): 100 µg/mL (≈ 186 µM)
MIC (Pseudomonas aeruginosa [10]): 200 µg/mL (≈ 371 µM)
MIC (Candida albicans [11]): 1000 µg/mL (≈ 1860 µM)

Cc1c(N/C=C2\C(=N)N(c3ccccc3)N=C2N)c(=O)n(-c2ccccc2)n1C
IC50 (MCF7): 60.7 µM
